Experimental data published in patent US10668040B2, “Treatment of urea cycle disorders in neonates and infants” (Horizon Therapeutics, LLC, priority 2017, dated 2020).

Experiments:
[1] = tested on: UCD patients; assay: HPN-100-009 (Example 2): growth and development, BMI and BSA Z-scores; format: in vivo, human; settings: Age 2 Months to <2 Years
Description: Assessment of Growth and Development: Baseline and Change from Baseline in Body Mass Index (BMI) Z-Score and Body Surface Area (BSA) Z-Score Up to Month 9.
End point description. To assess any effect of study drug treatment on growth, Z-scores were calculated to express the deviation from a reference population for BMI and BSA. The BMI Z-scores are based on the World Health Organization's Child Growth Standards charts. The BSA Z-Scores are based on weight-for-length charts. Negative Z-scores indicate lower than typical for age and gender while positive scores indicate higher than typical for age and gender. […] End point timeframe: Baseline, Day 7, Month 2, Month 3, Month 4, Month 5, Month 6, Month 9.

[2] = tested on: UCD patients; assay: Example 3: BMI and BSA Z-scores up to Month 24; format: in vivo, human
Description: Baseline and Change from Baseline in Body Mass Index (BMI) Z-Score Up to Month 24
(§1) To assess any effect of study drug treatment on growth, Z-scores were calculated to express the deviation from a reference population for BMI. The Z-scores are based on the World Health Organization's Child Growth Standards charts. Negative Z-scores indicate lower than typical for age and gender while positive scores indicate higher than typical for age and gender. BMI measurements were taken on month 1, month 2, month 3, month 4, month 5, month 6, month 9, month 12, month 15, month 18, and month 24.
Baseline and Change from Baseline in Body Surface Area (BSA) Z-Score Up to Month 24
as §1, with “BSA.” for “BMI.”, “weight-for-length” for “the World Health Organization's Child Growth Standards”

[3] = Age 2 months to <2 years, Month 1
[4] = Age 2 months to <2 years, Month 2
[5] = Age 2 months to <2 years, Month 3
[6] = Age 2 months to <2 years, Month 4

O=C(CCCc1ccccc1)OCC(COC(=O)CCCc1ccccc1)OC(=O)CCCc1ccccc1 [RAVICTI, benzenebutanoic acid, 1′,1″-(1,2,3-propanetriyl) ester]
BMI Z-Score baseline [1]: 0.795
BMI Z-score, Change from Baseline at Day 7 [1]: -0.211
BMI Z-score, Change from Baseline at Month 2 [1]: 0.0021
BMI Z-score, Change from Baseline at Month 3 [1]: 0.213
BMI Z-score, Change from Baseline at Month 4 [1]: 0.47
BMI Z-score, Change from Baseline at Month 5 [1]: 0.164
BMI Z-score, Change from Baseline at Month 6 [1]: 0.469
BSA Z-Score baseline [1]: 0.686
BSA Z-score, Change from Baseline at Day 7 [1]: -0.185
BSA Z-score, Change from Baseline at Month 2 [1]: -0.0437
BSA Z-score, Change from Baseline at Month 3 [1]: 0.119
BSA Z-score, Change from Baseline at Month 4 [1]: 0.381
BSA Z-score, Change from Baseline at Month 5 [1]: 0.198
BSA Z-score, Change from Baseline at Month 6 [1]: 0.398
BMI Z-Score baseline ([2]; Age 0 to <2 Months): −0.0544 (±1.268);
BSA Z-Score baseline ([2]; Age 0 to <2 Months): −0.1980 (±2.118);
BMI Z-Score change from baseline ([2]; Age 0 to <2 months, Month 1): −0.2158 (±1.36);
BSA Z-Score change from baseline ([2]; Age 0 to <2 months, Month 1): 0.2336 (±1.956);
BMI Z-Score change from baseline ([2]; Age 0 to <2 months, Month 2): −0.2598 (±1.195);
BSA Z-Score change from baseline ([2]; Age 0 to <2 months, Month 2): 0.2006 (±1.721);
BMI Z-Score change from baseline ([2]; Age 0 to <2 months, Month 3): −0.1617 (±1.026);
BSA Z-Score change from baseline ([2]; Age 0 to <2 months, Month 3): 0.2684 (±1.375);
BMI Z-Score change from baseline ([2]; Age 0 to <2 months, Month 4): −0.0264 (±1.682);
BSA Z-Score change from baseline ([2]; Age 0 to <2 months, Month 4): 0.2372 (±2.308);
BMI Z-Score change from baseline ([2]; Age 0 to <2 months, Month 5): 0.0828 (±1.142);
BSA Z-Score change from baseline ([2]; Age 0 to <2 months, Month 5): 0.1810 (±1.7);
BMI Z-Score change from baseline ([2]; Age 0 to <2 months, Month 6): 0.0136 (±1.721);
BSA Z-Score change from baseline ([2]; Age 0 to <2 months, Month 6): 0.2902 (±2.06);
BMI Z-Score change from baseline ([2]; Age 0 to <2 months, Month 9): 0.4614 (±1.253);
BSA Z-Score change from baseline ([2]; Age 0 to <2 months, Month 9): 0.1679 (±1.324);
BMI Z-Score change from baseline ([2]; Age 0 to <2 months, Month 12): 0.6646 (±0.9533);
BSA Z-Score change from baseline ([2]; Age 0 to <2 months, Month 12): 0.1308 (±0.5037);
BMI Z-Score change from baseline ([2]; Age 0 to <2 months, Month 15): 0.6830 (±0.557);
BSA Z-Score change from baseline ([2]; Age 0 to <2 months, Month 15): 0.1595 (±0.7583);
BMI Z-Score change from baseline ([2]; Age 0 to <2 months, Month 18): 0.3308 (±0.2757);
BSA Z-Score change from baseline ([2]; Age 0 to <2 months, Month 18): 0.1050 (±0.7352);
BMI Z-Score change from baseline ([2]; Age 0 to <2 months, Month 24): 0.7743 (±0.6496);
BSA Z-Score change from baseline ([2]; Age 0 to <2 months, Month 24): 0.7341 (±1.356);
BMI Z-Score baseline ([2]; Age 2 Months to <2 Years): 0.8107 (±2.17);
BSA Z-Score baseline ([2]; Age 2 Months to <2 Years): 0.7143 (±2.149);
BMI Z-Score change from baseline [2, 3]: −0.2385 (±0.7783);
BSA Z-Score change from baseline [2, 3]: −0.2105 (±0.7413);
BMI Z-Score change from baseline [2, 4]: −0.0249 (±0.7486);
BSA Z-Score change from baseline [2, 4]: −0.0704 (±0.7039);
BMI Z-Score change from baseline [2, 5]: 0.1815 (±0.8606);
BSA Z-Score change from baseline [2, 5]: 0.1065 (±0.7016);
BMI Z-Score change from baseline [2, 6]: 0.4434 (±0.9485);
BSA Z-Score change from baseline [2, 6]: 0.3365 (±0.7767);
BMI Z-Score change from baseline ([2]; Age 2 months to <2 years, Month 5): 0.1484 (±0.7629);
